US8592172B2, “Bioluminescent assays using cyanobenzothiazole compounds” (Promega Corporation, priority 2010, dated 2013)
Blank lines part the entries; values can stand above or below the compound they belong to.

What was measured:
[1] = tested on: UGT isozymes; settings: UGT isozymes currently reported in the literature; cited from earlier work
[2] = molecular target: T1, glutathione S-transferase isoenzyme A1-1 (GST A1-1) (Homo sapiens, UniProt P08263); experiment: Utilization of benzothiazole substrate by GST A1-1; format: biochemical; settings: 55 minutes at room temperature
T1 sequence (P08263 1-222): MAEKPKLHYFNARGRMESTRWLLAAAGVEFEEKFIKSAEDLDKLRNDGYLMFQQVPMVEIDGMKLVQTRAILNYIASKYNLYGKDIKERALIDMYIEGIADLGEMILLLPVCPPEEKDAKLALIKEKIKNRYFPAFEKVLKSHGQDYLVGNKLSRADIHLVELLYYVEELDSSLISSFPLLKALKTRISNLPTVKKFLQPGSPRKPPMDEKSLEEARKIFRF
Method: (§1) Compound 934-37 was dissolved in DMSO to produce a solution approximately 1 mg/mL. This solution was diluted 1:100 (v/v) into 50 mM HEPES buffer pH 7.5 to produce a substrate solution (approximately 10 μg/ml). Twenty μL of this solution was placed in 10 wells of a 96 well, white luminometer plate (Promega part Z3291), 20 μL of a 1:3.1 dilution of the substrate (approximately 3.2 μg/ml) was placed into another 10 wells in the luminometer plate.
(§2) D-Cysteine, 4 mg (Sigma Chemical Corp.; C8005-1g, 017K1034) was dissolved into 1 mL of 50 mM HEPES buffer pH 7.5, then 4 μL added to 4 of the wells containing the substrate solution and 4 of the wells with diluted substrate solution to convert compound 934-37 to the corresponding luciferin derivative. The structures of these compounds are shown below.
A sample of glutathione S-transferase isoenzyme A1-1 (GST A1-1) (1.2 mg/mL) and 100 μL of 100 mM glutathione in water was diluted into 5 mL of 50 mM HEPES pH 7.5, then 25 μL added to the plate as follows: 2 wells with unconverted, concentrated compound 934-37; 2 wells with concentrated and converted compound 934-37; 2 wells with unconverted, diluted compound 934-37; and 2 of the wells with converted, diluted compound 934-37.
(§3) Glutathione (100 μL of 100 mM glutathione) had been diluted to 5 mL with 50 mM HEPES buffer pH 7.5, then 25 μL added to the remaining wells of converted and unconverted compound 934-37 in concentrated and diluted solution.
(§4) After 55 minutes at room temperature, 4 μL of the D-cysteine solution above was added to all wells that had not received cysteine before, then 50 μL of P450-Glo LDR was added. The plate was then placed into a GloMax luminometer (Promega Corp.), and the bioluminescence measured after 15 minutes of incubation. The values obtained were averaged, and the average value of the bioluminescence produced from the wells with no enzyme were then subtracted from the average of the bioluminescence produced in the wells with enzyme.

[3] = molecular target: T2, GST M1-1 (Homo sapiens, UniProt P09488); experiment: Utilization of benzothiazole substrate by GST M1-1; format: biochemical; settings: 55 minutes at room temperature
T2 sequence (P09488 2-218 limits assumed): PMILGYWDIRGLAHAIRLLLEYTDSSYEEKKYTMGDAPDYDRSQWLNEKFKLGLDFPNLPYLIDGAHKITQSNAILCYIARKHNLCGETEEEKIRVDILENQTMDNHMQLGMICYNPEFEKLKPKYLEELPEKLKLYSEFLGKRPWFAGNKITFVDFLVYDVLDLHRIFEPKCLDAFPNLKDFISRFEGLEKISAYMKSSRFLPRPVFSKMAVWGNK
Method: as §1, §2
A sample of GST M1-1 (1.2 mg/mL) and 100 μL of 100 mM glutathione was diluted into 5 mL of 50 mM HEPES pH 7.5, then 25 μL added to: two of the wells with unconverted, concentrated compound 934-37; 2 wells with concentrated and converted compound 934-37; and two of the wells with unconverted, diluted compound 934-37 and 2 of the wells with converted, diluted compound 934-37.
as §3, §4

[4] = molecular target: UGT 2B7 (Homo sapiens, UniProt P16662); experiment: Recombinant UGT panel, substrate utilization; format: biochemical; set-up: purchased BD Gentest; host or cells: insect cells (microsomes); settings: 2 hour incubation at 37° C., recombinant Supersomes, background corrected
Method: (§5) During this incubation, the cysteine reacts with the cyanobenzathiozole substrate to yield a D-luciferin derivative. […] Therefore, activity of the UGT enzyme can be measured by analyzing the difference (lower or no output) in relative light units (RLU) of a sample in which glucuronidation occurs compared to a sample that was run under the same conditions with no added UDPGA cofactor.
(§6) In this example, a series of 12 recombinant UGTs expressed in insect microsomes (Supersomes™, BD Gentest™), as well as the control microsomes not expressing the UGT enzyme, were incubated with compound 3138, compound 3478, or compound 3165 as substrates, with or without the UDPGA co-factor.
(§7) After addition of a luciferin detection reagent (LDR) containing D-cysteine, both the substrate and the product were converted to D-luciferins (compound 3478 is already a luciferin derivative before addition of the LDR).
Reactions were assembled in a white, 96-well plate. Each well contained 20 μL of reaction mixture comprised of 100 mM TES, pH 7.5, 16 mM MgCl2, 50 μg/mL alamethicin (Sigma), 60 μM compound 3138 or compound 3478, and 0.4 mg/mL of control or recombinant UGT membranes. The reactions were initiated by addition of 20 μL of water or 8 mM triammonium UDPGA (Sigma) to each well. […] After the incubation was completed, the plate was read on a Veritas™ luminometer (Turner BioSystems, Inc.; Sunnyvale, Calif.). […]

[5] = molecular target: T3, UGT 2B4 (Homo sapiens, UniProt P06133); experiment: Recombinant UGT panel, substrate utilization; format: biochemical; settings: 2 hour incubation at 37° C., recombinant Supersomes
T3 construct: purchased BD Gentest; host or cells: insect cells (microsomes)
Method: as §5, §6, §7
(§8) Reactions were assembled in a white, 96-well plate. Each well contained 20 μL of reaction mixture comprised of 100 mM TES, pH 7.5, 16 mM MgCl2, 50 μg/mL alamethicin (Sigma), 60 μM compound 3138 or compound 3478, and 0.4 mg/mL of control or recombinant UGT membranes. The reactions were initiated by addition of 20 μL of water or 8 mM triammonium UDPGA (Sigma) to each well. The plate was mixed, sealed, and incubated in a 37° C. water bath for 2 hours. After the incubation, 40 μL P450-Glo LDR (Promega) with 20 mM D-cysteine-HCl.H2O (Sigma) was added to each well, the plate was mixed and allowed to incubate at room temperature for 20 minutes. After the incubation was completed, the plate was read on a Veritas™ luminometer (Turner BioSystems, Inc.; Sunnyvale, Calif.).
(§9) For each isozyme, the bioluminescence from the replicates containing UDPGA were subtracted from the average bioluminescence of the replicates without UDPGA. The average Δ RLU value obtained and the standard deviation of the replicates were then divided by the average bioluminescence for samples without UDPGA to obtain the % utilization for each isozyme. The % utilization obtained from the control microsomes was then subtracted from each isozyme to give the background corrected utilization data for those isozymes.

[6] = molecular target: T4, UGT 1A8 (Homo sapiens, UniProt Q9HAW9); experiment: Recombinant UGT panel, substrate utilization; format: biochemical; settings: 2 hour incubation at 37° C., recombinant Supersomes, background corrected
T4 construct: purchased BD Gentest; host or cells: insect cells (microsomes)
Method: as §5, §6, §7, §8, §9

[7] = molecular target: T5, UGT 1A10 (Homo sapiens, UniProt Q9HAW8); experiment: Recombinant UGT panel, substrate utilization; format: biochemical; settings: 2 hour incubation at 37° C., recombinant Supersomes, background corrected
T5 construct: purchased BD Gentest; host or cells: insect cells (microsomes)
Method: as §5, §6, §7, §8, §9

[8] = molecular target: T6, UGT 1A1 (Homo sapiens, UniProt P22309); experiment: Recombinant UGT panel, substrate utilization; format: biochemical; settings: 2 hour incubation at 37° C., recombinant Supersomes, background corrected
T6 construct: purchased BD Gentest; host or cells: insect cells (microsomes)
T6 sequence (P22309 26-533): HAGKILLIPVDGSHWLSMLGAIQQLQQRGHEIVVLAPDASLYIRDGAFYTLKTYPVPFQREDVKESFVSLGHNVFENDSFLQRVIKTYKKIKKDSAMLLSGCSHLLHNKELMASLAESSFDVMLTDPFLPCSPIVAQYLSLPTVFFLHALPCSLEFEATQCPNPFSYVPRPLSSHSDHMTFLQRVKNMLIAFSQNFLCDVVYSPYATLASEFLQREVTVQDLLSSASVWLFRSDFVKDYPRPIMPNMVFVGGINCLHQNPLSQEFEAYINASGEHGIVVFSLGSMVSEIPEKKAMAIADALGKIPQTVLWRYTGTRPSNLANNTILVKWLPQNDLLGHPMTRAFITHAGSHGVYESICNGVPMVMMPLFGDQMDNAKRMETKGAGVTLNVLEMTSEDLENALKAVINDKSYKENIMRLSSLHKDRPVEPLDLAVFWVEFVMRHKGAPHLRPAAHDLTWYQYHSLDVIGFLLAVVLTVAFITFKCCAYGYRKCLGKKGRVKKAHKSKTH
Method: as §5, §6, §7, §8, §9

[9] = molecular target: T7, UGT 1A4 (Homo sapiens, UniProt P22310); experiment: Recombinant UGT panel, substrate utilization; format: biochemical; settings: 2 hour incubation at 37° C., recombinant Supersomes
T7 construct: purchased BD Gentest; host or cells: insect cells (microsomes)
T7 sequence (P22310 29-534): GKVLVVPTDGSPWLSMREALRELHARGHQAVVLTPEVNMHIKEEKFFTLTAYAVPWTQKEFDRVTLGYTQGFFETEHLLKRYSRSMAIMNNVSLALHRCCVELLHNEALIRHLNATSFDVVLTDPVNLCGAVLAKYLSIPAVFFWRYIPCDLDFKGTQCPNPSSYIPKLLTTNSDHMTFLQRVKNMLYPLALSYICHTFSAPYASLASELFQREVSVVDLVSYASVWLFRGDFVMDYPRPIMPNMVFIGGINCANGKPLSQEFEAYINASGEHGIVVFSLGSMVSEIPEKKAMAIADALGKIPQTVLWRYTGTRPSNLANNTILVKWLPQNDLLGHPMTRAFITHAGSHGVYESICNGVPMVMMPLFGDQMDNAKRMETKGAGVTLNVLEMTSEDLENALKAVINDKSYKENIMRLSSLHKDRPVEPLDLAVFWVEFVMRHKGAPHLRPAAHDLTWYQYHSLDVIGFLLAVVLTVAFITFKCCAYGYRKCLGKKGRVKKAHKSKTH
Method: as §5, §6, §7, §8, §9

[10] = molecular target: T8, UGT 1A9 (Homo sapiens, UniProt O60656); experiment: Recombinant UGT panel, substrate utilization; format: biochemical; settings: 2 hour incubation at 37° C., recombinant Supersomes, background corrected
T8 construct: purchased BD Gentest; host or cells: insect cells (microsomes)
T8 sequence (O60656 26-530): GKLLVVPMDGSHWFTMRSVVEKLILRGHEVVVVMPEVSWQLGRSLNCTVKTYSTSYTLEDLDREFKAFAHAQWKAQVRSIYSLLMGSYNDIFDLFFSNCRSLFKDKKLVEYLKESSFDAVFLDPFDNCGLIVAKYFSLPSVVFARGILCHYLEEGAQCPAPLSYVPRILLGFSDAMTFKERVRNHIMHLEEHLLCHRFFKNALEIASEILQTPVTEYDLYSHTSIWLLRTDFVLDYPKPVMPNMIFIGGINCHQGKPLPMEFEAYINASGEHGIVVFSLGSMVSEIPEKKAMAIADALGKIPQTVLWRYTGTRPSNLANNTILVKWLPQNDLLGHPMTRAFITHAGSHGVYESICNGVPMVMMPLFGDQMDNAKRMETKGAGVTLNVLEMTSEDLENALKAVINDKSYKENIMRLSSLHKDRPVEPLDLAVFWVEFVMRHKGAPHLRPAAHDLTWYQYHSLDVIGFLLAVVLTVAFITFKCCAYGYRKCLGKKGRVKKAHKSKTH
Method: as §5, §6, §7, §8, §9

[11] = molecular target: T9, UGT 1A6 (Homo sapiens, UniProt P19224); experiment: Recombinant UGT panel, substrate utilization; format: biochemical; settings: 2 hour incubation at 37° C., recombinant Supersomes
T9 construct: purchased BD Gentest; host or cells: insect cells (microsomes)
Method: as §5, §6, §7, §8, §9

[12] = tested on: CYP450 1A2 activity in human liver microsomes; experiment: Human liver microsome assay with compound 3019; settings: 1 μg HLM, 3 μM compound 3019, 10 minutes at 37° C.
Method: Equal volumes of P450-Glo LDR with 6.6 mM D-Cysteine was added into the CYP450 reactions.

[13] = concentrated substrate (approximately 10 μg/ml)
[14] = diluted substrate (approximately 3.2 μg/ml)

T4 sequence (Q9HAW9 26-530): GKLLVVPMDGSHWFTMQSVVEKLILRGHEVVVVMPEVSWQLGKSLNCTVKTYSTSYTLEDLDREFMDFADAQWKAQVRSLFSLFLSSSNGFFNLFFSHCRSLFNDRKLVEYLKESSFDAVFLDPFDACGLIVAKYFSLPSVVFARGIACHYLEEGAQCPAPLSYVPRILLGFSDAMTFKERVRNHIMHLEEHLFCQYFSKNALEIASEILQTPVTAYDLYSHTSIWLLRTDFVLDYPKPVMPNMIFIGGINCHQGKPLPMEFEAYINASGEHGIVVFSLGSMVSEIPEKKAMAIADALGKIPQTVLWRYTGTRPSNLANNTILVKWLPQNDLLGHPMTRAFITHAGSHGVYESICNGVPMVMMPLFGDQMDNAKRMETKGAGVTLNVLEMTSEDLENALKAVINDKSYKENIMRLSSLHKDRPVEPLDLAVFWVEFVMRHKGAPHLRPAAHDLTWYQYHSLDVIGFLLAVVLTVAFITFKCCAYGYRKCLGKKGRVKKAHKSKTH
T9 sequence (P19224 27-532): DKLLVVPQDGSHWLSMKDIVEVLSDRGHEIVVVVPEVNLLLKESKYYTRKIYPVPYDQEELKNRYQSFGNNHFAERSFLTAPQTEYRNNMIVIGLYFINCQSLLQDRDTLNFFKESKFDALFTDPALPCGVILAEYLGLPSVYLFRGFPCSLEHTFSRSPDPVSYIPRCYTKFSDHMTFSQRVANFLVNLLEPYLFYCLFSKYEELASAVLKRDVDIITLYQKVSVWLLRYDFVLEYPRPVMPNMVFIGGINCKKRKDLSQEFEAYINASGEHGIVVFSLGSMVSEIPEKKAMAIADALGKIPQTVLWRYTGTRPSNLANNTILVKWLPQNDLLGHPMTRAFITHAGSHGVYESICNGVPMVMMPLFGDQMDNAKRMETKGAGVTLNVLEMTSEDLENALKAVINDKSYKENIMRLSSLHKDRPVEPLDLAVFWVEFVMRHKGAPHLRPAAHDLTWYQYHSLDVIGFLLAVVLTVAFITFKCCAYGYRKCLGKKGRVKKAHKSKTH
T3 sequence (P06133 24-528): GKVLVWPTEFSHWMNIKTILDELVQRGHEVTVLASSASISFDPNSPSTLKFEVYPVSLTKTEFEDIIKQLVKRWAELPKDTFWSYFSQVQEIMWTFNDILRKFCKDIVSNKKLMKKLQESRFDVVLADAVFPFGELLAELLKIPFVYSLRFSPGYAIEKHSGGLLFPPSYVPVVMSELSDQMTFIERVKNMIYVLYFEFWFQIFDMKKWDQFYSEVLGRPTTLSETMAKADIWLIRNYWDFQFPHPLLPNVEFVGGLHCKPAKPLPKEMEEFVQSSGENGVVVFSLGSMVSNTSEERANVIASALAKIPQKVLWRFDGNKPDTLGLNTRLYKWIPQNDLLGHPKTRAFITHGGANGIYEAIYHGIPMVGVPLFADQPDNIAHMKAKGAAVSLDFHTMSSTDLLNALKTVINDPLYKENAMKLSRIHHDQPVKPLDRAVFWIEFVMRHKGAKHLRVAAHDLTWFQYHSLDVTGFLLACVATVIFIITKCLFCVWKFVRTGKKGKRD
Chain of UGT 2B7 (P16662 24-529): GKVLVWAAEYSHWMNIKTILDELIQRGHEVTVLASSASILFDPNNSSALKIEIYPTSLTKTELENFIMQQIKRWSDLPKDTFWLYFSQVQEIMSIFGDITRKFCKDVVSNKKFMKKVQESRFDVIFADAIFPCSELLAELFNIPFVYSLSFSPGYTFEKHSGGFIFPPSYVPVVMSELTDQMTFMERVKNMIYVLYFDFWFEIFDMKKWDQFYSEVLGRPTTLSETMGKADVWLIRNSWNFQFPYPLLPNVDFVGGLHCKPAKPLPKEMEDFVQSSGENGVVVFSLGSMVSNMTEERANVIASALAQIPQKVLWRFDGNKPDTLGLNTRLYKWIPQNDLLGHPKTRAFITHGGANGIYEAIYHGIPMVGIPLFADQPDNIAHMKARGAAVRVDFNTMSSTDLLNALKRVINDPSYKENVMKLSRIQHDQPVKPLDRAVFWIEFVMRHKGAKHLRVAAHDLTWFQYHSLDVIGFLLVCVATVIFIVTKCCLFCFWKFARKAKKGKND
T5 sequence (Q9HAW8 26-530): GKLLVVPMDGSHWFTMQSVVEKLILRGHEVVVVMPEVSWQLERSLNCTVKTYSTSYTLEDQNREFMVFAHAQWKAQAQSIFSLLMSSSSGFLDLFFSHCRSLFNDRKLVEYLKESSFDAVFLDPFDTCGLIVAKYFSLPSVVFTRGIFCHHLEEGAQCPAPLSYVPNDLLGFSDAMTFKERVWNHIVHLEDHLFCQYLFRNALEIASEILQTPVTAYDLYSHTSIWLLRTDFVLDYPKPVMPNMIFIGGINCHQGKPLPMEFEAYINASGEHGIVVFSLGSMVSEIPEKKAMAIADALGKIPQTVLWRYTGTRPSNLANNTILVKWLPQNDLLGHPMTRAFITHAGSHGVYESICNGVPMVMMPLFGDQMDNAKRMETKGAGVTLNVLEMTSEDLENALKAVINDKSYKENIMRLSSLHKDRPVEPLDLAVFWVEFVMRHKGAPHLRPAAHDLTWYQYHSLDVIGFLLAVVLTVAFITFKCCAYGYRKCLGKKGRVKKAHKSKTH

SMILES: O=c1cc(C(F)(F)F)c2ccc(O)cc2o1 [7-hydroxy-4-trifluoromethyl coumarin]
- Isozymes Modulated [1]: Substrate for 1A1, 1A3, 1A6, 1A9, 2B7

- bioluminescence with GST A1-1 minus no enzyme [2, 13]: 164,400 RLU
- bioluminescence with GST A1-1 minus no enzyme [2, 14]: 195,021 RLU
- bioluminescence with GST M1-1 minus no enzyme [3, 13]: 41,212 RLU
- bioluminescence with GST M1-1 minus no enzyme [3, 14]: 30,428 RLU
SMILES: Cc1cc(S(=O)(=O)Oc2ccc3nc(C#N)sc3c2)ccc1[N+](=O)[O-] [Compound 934-37]

SMILES: Cc1cc(O)cc2sc(C3=NC(C(=O)O)CS3)nc12 (centres unmarked) [Compound 3478]
- % utilization of substrate by UGT 2B7 [4]: ≤ 15%
- utilization of substrate by UGT 2B4 [5]: did not utilize either compound 3138 or 3478 to an appreciable extent
- % utilization of substrate by UGT 1A8 [6]: ≤ 15%
- % utilization of substrate by UGT 1A10 [7]: ≤ 15%
- % utilization of substrate by UGT 1A1 [8]: ≤ 15%
- utilization of substrate by UGT 1A4 [9]: did not utilize either compound 3138 or 3478 to an appreciable extent
- % utilization of substrate by UGT 1A9 [10]: ≤ 15%
- utilization of substrate by UGT 1A6 [11]: able to utilize compound 3478 to any appreciable extent

SMILES: C=C[C@H]1C[N@@]2CC[C@H]1C[C@@H]2[C@@H](O)c1ccnc2ccc(OC)cc12 [Quinidine]
- Isozymes Modulated [1]: 2B7 and 2B15, others to a lesser extent

SMILES: O=c1ccc2ccc(O)cc2o1 [Umbelliferne]
- Isozymes Modulated [1]: Substrate of most isozymes

- bioluminescence with GST A1-1 minus no enzyme [2, 13]: 6,410 RLU
- bioluminescence with GST A1-1 minus no enzyme [2, 14]: 6,462 RLU
- bioluminescence with GST M1-1 minus no enzyme [3, 13]: 315,759 RLU
- bioluminescence with GST M1-1 minus no enzyme [3, 14]: 213,920 RLU
SMILES: Cc1cc(S(=O)(=O)Oc2ccc3nc(C4=N[C@@H](C(=O)O)CS4)sc3c2)ccc1[N+](=O)[O-] [converted compound 934-37]

- inhibition of compound 3019 activity in human liver microsomes [12]: sensitive to inhibition
SMILES: O=c1cc(-c2ccccc2)oc2c1ccc1ccccc12 [α-naphthoflavone, reference compound]
